Reference: US4285956A, “Xanthene and thioxanthene derivatives, compositions thereof and treatment therewith” (priority 1978, dated 1981)
“Also recorded” adds a separate entry of the source.

Assays:
[1] = Neuroleptic effect: duration and strength (remarks of Table 2); type: in vivo; settings: in words; for Duration (remarks, words): duration of neuroleptic effect; for Strength of effect (remarks, words): strength of neuroleptic effect
Text: The pharmacological testing of the novel xanthones and thioxanthenes of Formula I consisted of standard and reliable tests. […]

[2] = Amphetamine antagonism (stereotypy in rats); type: in vivo; settings: Rattus norvegicus, ip, 24 h, read-out: Amphetamine antagonism ED50
[3] = Catalepsy wire mesh, rat, max.; type: in vivo, rats; settings: for ED50: Rattus norvegicus, sc, rats, s.c., strongest effect within first 6 hours, read-out: Catalepsy wire mesh, rat, max. ED50
Protocol: Catalepsy wire mesh, rat, max. (ED50 mg/kg s.c.)
A vertical wire netting (50 cm×49 cm). The meshes (openings) of the netting are square (1 cm×1 cm). The wire diameter is 2 mm. Stop watch. Rats, male, 180-200 g.
The animals are labeled and used in groups of five. The test substance is injected subcutaneously (s.c.) (5 ml/kg) at 4 dose levels selected from the fixed dose scale.
The animals are placed in the middle of the vertical wire netting 60, 120, 180, 240, 300 and 360 minutes after injection of the test compound. The animals are considered cataleptic when they remain immobile during a period of 15 seconds. This cataleptic reaction is designated +. If the rats are "atonic" and passively slide down the wire mesh they are considered not cataleptic. If the animals climb up and down the wire mesh they are nor cataleptic. In both situations the designation - is used.

[4] = Methylphenidate antagonism (mice biting corrugated paper); type: in vivo; settings: for ED50: Mus musculus, ip
Protocol: Methylphenidate antagonism (ED50 mg/kg i.p.)
Perspex observation cages without bottom and lid, consisting of 5 sections each measuring 12×25×30 cm. White corrugated paper. Mice, male, 18-25 g.
The test substance is given i.p. in the doses 0, 1/8, 1/32 and 1/128 of the determined "i.p. LD50". 3×2 mice are used for each dose level. Two or 24 hours after injection of test substance, methylphenidate, 60 mg/kg, is injected s.c. After administration of methylphenidate the mice are placed in the observation cages, 2 in each cage, where they remain for exactly 1 hour. The cages are placed on corrugated paper, the corrugations facing upwards. It is examined whether the mice have been biting the corrugated paper or not. […] If one or more of the control pairs have not been biting, the test has to be repeated on a new set of mice.
The result is stated in fractions: 0/3, 1/3, 2/3 and 3/3 where 0, 1, 2 and 3 are the number of pairs which have not been biting on receipt of the dose in question.
The results are calculated as the dose (ED50), which causes antagonism in 50% of the test animals.

[5] = mice, i.p., methylphenidate 60 mg/kg s.c. 2 h after test substance, read-out: Methylphenidate antagonism ED50, 2 h
[6] = mice, i.p., methylphenidate 60 mg/kg s.c. 24 h after test substance, read-out: Methylphenidate antagonism ED50, 24 h

What does the source list for OCCN1CCN(CCC=C2c3ccccc3Sc3ccc(Cl)cc32)CC1 [clopenthixol, reference compound]?
Duration (remarks, words) [1]: short acting; Strength of effect (remarks, words) [1]: moderately strong; ED50 [2]: 0.77 mg/kg; ED50 [3]: 0.95 mg/kg; ED50 [4, 5]: 1.2 mg/kg

Which “Duration (remarks, words)” value [1] does the source give for O[C@H]1CC[C@@H](CN2CCC(=C3c4ccccc4Sc4ccc(Cl)cc43)CC2)CC1 [Lu 15-014, 1-(Cis-4-hydroxycyclohexylmethyl)-4-(2-chloro-9-thioxanthenylidene)-piperidine] here?
Its value is “short acting”.

What about the “Strength of effect (remarks, words)” value [1] of the same molecule?
Its value is “strong”.

And the ED50 [3]?
The ED50 was 2.5 mg/kg.

What about the ED50 [4, 5] of the same molecule?
The ED50 was 0.2 mg/kg.

And the ED50 [4, 6]?
The ED50 was over 10 mg/kg.

Which “Duration (remarks, words)” value [1] does the source give for CS(=O)(=O)c1ccc2c(c1)C(=C1CCN(C[C@H]3CC[C@H](O)CC3)CC1)c1ccccc1S2 [Lu 16-066, 1-(Trans-4-hydroxycyclohexylmethyl)-4-(2-methylsulfonyl-9-thioxanthenylidene)piperidine] here?
Its value is “short acting”.

And the “Strength of effect (remarks, words)” value [1]?
Its value is “moderately strong”.

What about the ED50 [3] of the same molecule?
The ED50 was 0.25 mg/kg.

And the ED50 [4, 5]?
Its ED50 is 0.73 mg/kg.

And the ED50 [4, 6]?
Its ED50 is over 10 mg/kg.

For O[C@@H]1CC[C@H](CN2CCC(=C3c4ccc(F)cc4Sc4ccc(C(F)(F)F)cc43)CC2)C[C@H]1O (relative stereo) [Lu 15-052, 1-(3-trans-4-cis-dihydroxycyclohexylmethyl)-4-(2-trifluoromethyl-6-fluoro-9-thioxanthenylidene)-piperidine], which “Duration (remarks, words)” value [1] is on record?
Its value is “long acting”.

What about the “Strength of effect (remarks, words)” value [1] of the same molecule?
The value was “strong; also recorded: very strong”.

And the ED50 [2]?
The ED50 was 0.9 mg/kg.

What about the ED50 [3] of the same molecule?
The ED50 was 0.026 mg/kg.

And the “Cataleptic activity” value ([3]; in words)?
The value was “have a cataleptic activity”.

And the ED50 [4, 5]?
Its ED50 is 0.32 mg/kg.

What about the ED50 [4, 6] of the same molecule?
Its ED50 is 0.06 mg/kg.

With O[C@H]1CC[C@H](CN2CCC(=C3c4ccc(F)cc4Sc4ccc(Cl)cc43)CC2)CC1 [Lu 14-114, 1-(trans-4-hydroxycyclohexylmethyl)-4-(2-chloro-6-fluoro-9-thioxanthenylidene)-piperidine] as the molecule, how does the “Duration (remarks, words)” value [1] read?
Its value is “short acting”.

And the “Strength of effect (remarks, words)” value [1]?
The value was “strong”.

What about the ED50 [2] of the same molecule?
The ED50 was 0.35 mg/kg.

What about the ED50 [4, 5] of the same molecule?
Its ED50 is 0.1 mg/kg.

What about the ED50 [4, 6] of the same molecule?
The ED50 was 6.6 mg/kg.

For Fc1ccc2c(c1)Sc1ccc(C(F)(F)F)cc1C2=C1CCN(CC2CCOCC2)CC1 [Lu 15-031, 1-(4-tetrahydropyranylmethyl)-4-(2-trifluoromethyl-6-fluoro-9-thioxanthenylidene)piperidine], which “Duration (remarks, words)” value [1] is on record?
The value was “long acting”.

And the “Strength of effect (remarks, words)” value [1]?
Its value is “moderately strong”.

And the ED50 [2]?
Its ED50 is 1.3 mg/kg.

What about the ED50 [4, 5] of the same molecule?
The ED50 was 0.52 mg/kg.

And the ED50 [4, 6]?
The ED50 was 0.55 mg/kg.

Which results are given for O=C(CCCN1CCC(O)(c2ccc(Cl)cc2)CC1)c1ccc(F)cc1 [haloperidol, reference compound]?
Duration (remarks, words) [1]: short acting; Strength of effect (remarks, words) [1]: very strong; ED50 [2]: 0.14 mg/kg; ED50 [3]: 0.21 mg/kg; ED50 ([4]; 2 h, read-out: Methylphenidate antagonism ED50, 2 h): 0.06 mg/kg

Which “Duration (remarks, words)” value [1] does the source give for CC1(O)CCC(CN2CCC(=C3c4ccc(F)cc4Sc4ccc(C(F)(F)F)cc43)CC2)CC1 (stereo not drawn) [Lu 15-048, 1-(4-hydroxy-4-methylcyclohexylmethyl)-4-(2-trifluoromethyl-6-fluoro-9-thioxanthenylidene)-piperidine] here?
The value was “long acting”.

And the “Strength of effect (remarks, words)” value [1]?
Its value is “strong”.

And the ED50 [2]?
The ED50 was under 0.31 mg/kg.

And the ED50 [4, 5]?
The ED50 was 1.3 mg/kg.

And the ED50 [4, 6]?
Its ED50 is 0.13 mg/kg.

With “1-(2-Oxazolidinon-3-yl)ethyl)-4-(2-fluoro-6-methyl-9-thioxanthenylidene)-piperidine [Lu-15-062]” as the molecule, how does the “Duration (remarks, words)” value [1] read?
The value was “short acting”.

And the “Strength of effect (remarks, words)” value [1]?
Its value is “moderately strong”.

And the “Methylphenidate antagonism ED50, 2 h” value ([4]; mice, i.p., methylphenidate 60 mg/kg s.c. 2 h after test substance)?
Its value is 0.51 mg/kg.

And the “Methylphenidate antagonism ED50, 24 h” value ([4]; mice, i.p., methylphenidate 60 mg/kg s.c. 24 h after test substance)?
The value was over 40 mg/kg.

With OC1COC(CN2CCC(=C3c4ccccc4Sc4ccc(Cl)cc43)CC2)OC1 (stereo not drawn) [Lu 14-140, 1-(5-hydroxy-1,3-dioxan-2-yl)methyl-4-(2-chloro-9-thioxanthenylidene)-piperidine] as the molecule, how does the “Duration (remarks, words)” value [1] read?
Its value is “short acting”.

And the “Strength of effect (remarks, words)” value [1]?
Its value is “strong”.

What about the ED50 [4, 5] of the same molecule?
The ED50 was 0.77 mg/kg.

What about the ED50 [4, 6] of the same molecule?
The ED50 was over 40 mg/kg.

Which results are given for O[C@H]1CCCC[C@H]1CN1CCC(=C2c3ccc(F)cc3Sc3ccc(C(F)(F)F)cc32)CC1 (relative stereo) [Lu 15-138, 1-(cis-2-hydroxycyclohexylmethyl)-4-(2-trifluoromethyl-6-fluoro-9-thioxanthenylidene)-piperidine]?
Duration (remarks, words) [1]: long acting; Strength of effect (remarks, words) [1]: strong; ED50 [2]: 1.7 mg/kg; ED50 [4, 5]: 1.3 mg/kg; ED50 [4, 6]: 0.15 mg/kg

Which “Duration (remarks, words)” value [1] does the source give for CC(=O)N[C@H]1CC[C@H](CN2CCC(=C3c4ccc(F)cc4Sc4ccc(C(F)(F)F)cc43)CC2)CC1 [Lu 16-043] here?
Its value is “long acting”.

What about the “Strength of effect (remarks, words)” value [1] of the same molecule?
The value was “relatively strong”.

And the ED50 [3]?
The ED50 was over 20 mg/kg.

What about the ED50 [4, 5] of the same molecule?
The ED50 was over 10 mg/kg.

And the ED50 [4, 6]?
The ED50 was 0.42 mg/kg.

Which “Duration (remarks, words)” value [1] does the source give for Cc1ccc2c(c1)C(=C1CCN(C[C@H]3CC[C@H](O)CC3)CC1)c1ccc(F)cc1S2 [Lu 14-082, 1-(trans-4-hydroxycyclohexylmethyl)-4-(2-methyl-6-fluoro-9-thioxanthenylidene)-piperidine] here?
Its value is “short acting”.

What about the “Strength of effect (remarks, words)” value [1] of the same molecule?
The value was “moderately strong”.

And the ED50 [4, 5]?
The ED50 was 0.79 mg/kg.

And the ED50 [4, 6]?
The ED50 was over 10 mg/kg.

Which “Duration (remarks, words)” value [1] does the source give for O[C@H]1CC[C@H](CN2CCC(=C3c4ccc(F)cc4Sc4cc(F)ccc43)CC2)CC1 [Lu 15-062, 1-(trans-4-hydroxycyclohexylmethyl)-4-(3,6-di-fluoro-9-thioxanthenylidene)-piperidine] here?
Its value is “short acting”.

And the “Strength of effect (remarks, words)” value [1]?
Its value is “moderately strong”.

And the ED50 [2]?
The ED50 was 0.85 mg/kg.

What about the ED50 [4, 5] of the same molecule?
The ED50 was 0.77 mg/kg.

And the ED50 [4, 6]?
Its ED50 is over 10 mg/kg.

With O[C@@H]1CC[C@H](CN2CCC(=C3c4ccccc4Sc4ccc(Cl)cc43)CC2)C[C@H]1O (relative stereo) [Lu 15-041, 1-(3-trans-4-cis-dihydroxycyclohexylmethyl)-4-(2-chloro-9-thioxanthenylidene)piperidine] as the molecule, how does the “Duration (remarks, words)” value [1] read?
The value was “moderately long acting”.

And the “Strength of effect (remarks, words)” value [1]?
The value was “strong”.

And the ED50 [2]?
The ED50 was under 0.31 mg/kg.

What about the ED50 [4, 5] of the same molecule?
The ED50 was 0.62 mg/kg.

And the ED50 [4, 6]?
The ED50 was 3.6 mg/kg.

For CN(C)S(=O)(=O)c1ccc2c(c1)C(=C1CCN(C[C@H]3CC[C@H](O)CC3)CC1)c1ccc(F)cc1S2 [Lu 16-107, 1-(Trans-4-hydroxycyclohexylmethyl)-4-(2-dimethylsulfamoyl-6-fluoro-9-thioxanthenylidene)piperidine], which “Duration (remarks, words)” value [1] is on record?
Its value is “long acting”.

And the “Strength of effect (remarks, words)” value [1]?
The value was “moderately strong”.

What about the ED50 [3] of the same molecule?
Its ED50 is 0.28 mg/kg.

And the ED50 [4, 5]?
The ED50 was 1.9 mg/kg.

What about the ED50 [4, 6] of the same molecule?
The ED50 was 0.76 mg/kg.

Which results are given for O[C@@H]1CC[C@H](CN2CCC(=C3c4ccc(F)cc4Sc4ccc(Cl)cc43)CC2)C[C@H]1O (relative stereo) [Lu 15-070, 1-(3-trans-4-cis-dihydroxycyclohexylmethyl)-4-(2-chloro-6-fluoro-9-thioxanthenylidene)-piperidine]?
Duration (remarks, words) [1]: moderately long acting; ED50 [4, 5]: 0.51 mg/kg; ED50 [4, 6]: 0.5 mg/kg

With Cc1ccc2c(c1)Sc1ccc(F)cc1C2=C1CCN(C[C@H]2CC[C@H](O)CC2)CC1 [Lu 14-090, 1-(trans-4-hydroxycyclohexylmethyl)-4-(2-fluoro-6-methyl-9-thioxanthenylidene)-piperidine] as the molecule, how does the “Duration (remarks, words)” value [1] read?
The value was “short acting”.

What about the “Strength of effect (remarks, words)” value [1] of the same molecule?
The value was “moderately strong”.

What about the ED50 [4, 5] of the same molecule?
The ED50 was 1.25 mg/kg.

What about the ED50 [4, 6] of the same molecule?
Its ED50 is 32 mg/kg.

With N[C@H]1CC[C@H](CN2CCC(=C3c4ccccc4Sc4ccc(Cl)cc43)CC2)CC1 [Lu 16-081] as the molecule, how does the “Duration (remarks, words)” value [1] read?
The value was “short acting”.

What about the “Strength of effect (remarks, words)” value [1] of the same molecule?
The value was “moderately strong”.

What about the ED50 [4, 5] of the same molecule?
Its ED50 is 0.5 mg/kg.

What about the ED50 [4, 6] of the same molecule?
Its ED50 is about 10 mg/kg.
